Results on two molecules are retold here after publication PMC11945475, “Nasal Administration of a Nanoemulsion Based on Methyl Ferulate and Eugenol Encapsulated in Chitosan Oleate: Uptake Studies in the Central Nervous System” (Pharmaceutics, 2025).

SMILES strings stand for the structures. Like-named read-outs stand apart in the source and are kept apart here.

The nature of data set [1]: Encapsulation efficiency (ultrafiltration method, HPLC). Format: physicochemical. The following applies: CS-OA NE, ultrafiltration 50K MWCO. As for the experimental part: EE% was calculated by Equation (2):(2) EE%= total drug amount in CS-OA NE - drug amount in external phase/total drug amount in CS-OA NE × 100
The test system of the next data set is RPMI 2650 cells. As to the method:
RPMI 2650 cells were used to evaluate in vitro the possible CS-OA NE cytotoxicity as well as Fer-Me and eugenol cell uptake.
RPMI 2650 cells were cultured on 75 cm^2 polystyrene cell culture flasks in Advanced Minimum Essential Medium (A-MEM), which was supplemented with 10% fetal bovine serum (FBS), 2 mM L-glutamine, 100 IU/mL penicillin, and 100 μg/mL streptomycin. The cells were maintained in a humidified atmosphere containing 5% CO2 at 37 °C. Cells were split twice using trypsin-EDTA at 37 °C before being seeded and allowed to grow to approximately 90% confluence for 3-(4,5-dimethylthiazol-2-yl)-2,5-diphenyltetrazolium (MTT) assays and uptake studies. Cell counting was performed using Scepter™ 2.0 handheld automated cell counter (Merck Millipore, Milan, Italy).
RPMI 2650 cells were seeded in a 12-well plate at a density of 8 × 10^4 cells/well containing 2 mL of culture A-MEM. […] The corresponding solution of pure compounds (approximated to 250 µM and 600 µM concentrations of Fer-Me and eugenol, respectively), and raw Fer-Me (corresponding to a 250 µM solution) added directly to the wells as powder, were used as comparison. In particular, 2 mL of diluted CS-OA NE or the corresponding solution of pure compounds was added to the test wells, and the plate was incubated for pre-determined interval times (10, 30, and 60 min) in a humidified 5% CO2 atmosphere at 37 °C. As for raw Fer-Me incubation, 0.1 mg was accurately weighed (analytical balance Sartorius CP 225D), added to each well containing 2 mL of complete A-MEM, and incubated at 37 °C in an orbital shaker for the same pre-determined interval times above indicated. All media were removed at the end of the incubation. […] After thawing, the lysate was centrifuged twice (16,000× g for 10 min) and the supernatant was immediately injected into the HPLC apparatus (20 μL) to quantify Fer-Me and eugenol (see below). The final number of cells was evaluated on untreated wells after their trypsinization and counted using the Scepter^TM 2.0 automated cell counter (Merck Millipore, Milan, Italy). Each reported value represents the mean of three independent incubation experiments expressed as nanomoles of compounds for 10^6 cells. The uptake efficiencies were calculated as the compound amount quantified in cell lysate 10 min after the onset of the incubation compared to the initial compound amount incubated in cell media (%). […]
The quantification of eugenol and Fer-Me was performed by using a modular HPLC system composed of a pump (model LC-40D), DAD detector (model SPD-M40, Shimadzu, Kyoto, Japan), as well as an injection valve with a 20 μL sample loop (model 7725; Rheodyne, IDEX, Torrance, CA, USA). […]

The conditions of data set [2]: male, Sprague-Dawley, rat, in vivo. As for the experimental part: Fer-Me and eugenol were nasally co-administered as loaded in CS-OA NE to evaluate their concentration–time profiles in male Sprague-Dawley rats’ (200–250 g body weight; Charles River laboratories, Calco, Italy) bloodstream and CSF. The results were compared with those obtained by the rat intravenous administrations of Fer-Me (10 mg/kg; present study), and 20 mg/kg of eugenol. The sample size (4 rats/group) has been chosen based on our previous studies. The experimental procedures were approved by the Italian Ministry of Health and were performed in accordance with the European Communities Council Directive of September 2010 (2010/63/EU). According to the ARRIVE guidelines, all possible efforts were made to minimize animal pain and discomfort and to reduce the number of experimental subjects.

The conditions of data set [3]: cited from earlier work.
The conditions of data set [4]: cited from earlier work. The source holds these as a separate data set.
For the next data set, the system named is several cell lines. The following applies: cited from earlier work.
Data set [5] is described as follows: Intravenous administration of Fer-Me to rats (bloodstream and CSF pharmacokinetics). Format: in vivo, rat. The following applies: rat, in vivo, iv. As for the experimental part: Charles River laboratories, Calco, Italy) bloodstream and CSF. […] The sample size (4 rats/group) has been chosen based on our previous studies. The experimental procedures were approved by the Italian Ministry of Health and were performed in accordance with the European Communities Council Directive of September 2010 (2010/63/EU). According to the ARRIVE guidelines, all possible efforts were made to minimize animal pain and discomfort and to reduce the number of experimental subjects. Fer-Me solution (2.5 mg/mL final concentration, 15% v/v EtOH content) was prepared by first dissolving Fer-Me in EtOH and then adding this latter solution to a saline solution (0.9% NaCl). […] The aqueous phase was then subjected to a double extraction with 1 mL of H2O-saturated ethyl acetate. […] Data were acquired and processed through CLASS-VP Software; version 7.2.1 (Shimadzu Italia, Milan, Italy). The mobile phase was eluted under isocratic conditions (0.8 mL/min) and was constituted by a mixture of acetic acid in H2O (0.4% v/v) and MeOH, whose ratio was 40:60 (v/v). The UV-Vis detector was set at 320 nm for the detection of Fer-Me, its hydrolysis product Fer, and Caf-Me, which was utilized as an internal standard during blood sample extraction. […] The average recoveries were approximately 40% for Fer and 58% for Fer-Me. For this reason, the concentrations of these compounds were determined by their peak area ratio with respect to the internal standard (Caf-Me). […] Fer-Me in vivo half-life (t1/2) in the rats' bloodstream was determined using nonlinear regression (exponential decay) of concentration values quantified at appropriate time intervals after infusion, further validated by applying linear regression to the semi-logarithmic plot.

For `C=CCc1ccc(O)c(OC)c1` [eugenol], the “EE% (encapsulation efficiency)” value in data set [1] is 87.9%. The intracellular amount amounted to 60.80 ± 5.09 nmol/10^6 cells in the data set on RPMI 2650 cells (human, 10 min, 600 µM) and 57.41 ± 2.80 nmol/10^6 cells with RPMI 2650 cells (human, 60 min, 600 µM). For the same molecule, the “uptake efficiency at 10 min” value in the data set on RPMI 2650 cells (human, 10 min, 600 µM) was 0.77 ± 0.10%. Also, the “dose-normalized CSF AUC of eugenol relative to Fer-Me” value in data set [2] is on record as “about 16 times”. For the same molecule, the “permanence in the rat CSF” value in data set [3] (in vivo) is given as 50 min. The “AUC in CSF” value in data set [3] (rat, eugenol 20 mg/kg i.v.) is 56.1 ± 4.2 µg·min/mL; in data set [4] (rat, oral dose of 500 mg/kg of eugenol), 30.97 ± 2.18 µg·min/mL. Further, the “Tmax in CSF” value in data set [3] (rat, eugenol 20 mg/kg i.v.) is 10 min. Also, the “t1/2 in the bloodstream” value in data set [3] (rat, in vivo, iv, 20 mg/kg) is “about 20 min”. The absolute bioavailability entry in data set [4] (eugenol oral administration) is given as “about 4%”. Moreover, in the data set with several cell lines, the “concentration known to induce cytotoxicity” value was 5000 µM.
Consider `COC(=O)/C=C/c1ccc(O)c(OC)c1` [Fer-Me, methyl ferulate], for which the “EE% (encapsulation efficiency)” value in data set [1] was determined as 90.2%. Moreover, the “uptake efficiency at 10 min” value in the data set on RPMI 2650 cells turned out to be 0.80 ± 0.12%. In data set [5], the “Tmax in CSF” value is given as 20 min. Besides, the “kinetic elimination constant (kel)” value in data set [5] (10 mg/kg) turned out to be 0.069 ± 0.003 min⁻¹.
